{"source": "patent US9999614B2", "about": "“Combination for the prophylaxis and treatment of behavioural, mental, and cognitive disorders” (LTD “VALENTA-INTELLEKT”, priority 2012, dated 2018)", "test_system": "amnesia in mice, as caused by scopolamine", "assay": "CPAR, model of amnesia caused by scopolamine", "assay_type": "in vivo", "conditions": "scopolamine 1 mg/kg i.p.", "protocol": "For this, the active substances Melatonin 3 mg/Memantin 10 mg, Melatonin 5 mg/Memantin 20 mg, Melatonin 10 mg/Memantin 20 mg were taken, and doses recommended for human beings were converted into doses adapted for mice according to the formula “(active substance/70(average weight of a human being))×7”. Then the compositions were dissolved in 5 mL of the solution and, according to the given formula, introduced to animals intraperitoneally once a day for 5 days.\nThe CPAR test is the main model for evaluating substance influences on formation and replication of short-time memory in a normal condition and in an abnormal condition, i.e., induced amnesia. The CPAR is the most informative method among the methods that are used today for evaluating efficiency of substances with influence on the CNS of mammals (see, “Manual for Experimental (Pre-Clinical) Studies of New Pharmacological Substances”, 2000). The CPAR (conditioned passive avoidance reflex in a dark, light chamber) was taught to the mice on the basis of electrodermal response according to the method proposed by Cumin et al. (1982) with due regard to the recommendations given by Mondadori et al. (1990). The installation for mice, as produced by Lafayette Instrument Co., USA, was a black chamber with the electrode floor and a white plastic platform that was arranged on the floor in the center of the chamber. The mice, one by one, were put onto the plastic platform. The animals went/jumped down onto the electrode floor where they received an electric current shock, i.e., punishment. Electric current was supplied after the time when an animal stood on the floor with all its four legs. The natural response of the animals is to go back to the current-free or safe platform. […] Tests for memorizing CPAR were conducted in successive time intervals after amnesic action. In a case where an animal went/jumped down onto the platform within 1 minute, it was recorded as having retrograde amnesia of the passive avoidance skill. The compositions were studied in comparison with Melatonin 5 mg (mono-use) and Memantin 10 mg (mono-use), according to the above formula for adapting to animal models.\nThe compositions under study were dissolved in 5 mL of the solution and, according to the above formula, introduced to the animals intraperitoneally, once a day for 5 days.", "key": {"[1]": {"conditions": "1 day after teaching, Melatonin 5 mg, Memantin 10 mg mono-use"}}, "data": [{"smiles": "CN1[C@@H]2C[C@@H](OC(=O)[C@H](CO)c3ccccc3)C[C@H]1[C@@H]1O[C@@H]12", "note": "[Scopolamine]", "values": [{"measurement": "Latent time of entering into the dark chamber", "setting": "[1]", "result": "72.3 ± 25.6", "unit": "s"}, {"measurement": "Number of mice not entered into the dark chamber, %", "setting": "[1]", "result": 25, "unit": "%"}, {"measurement": "Number of mice not entered into the dark chamber, %", "setting": "3 days after teaching, Melatonin 5 mg, Memantin 10 mg mono-use", "result": 33.3, "unit": "%"}, {"measurement": "Number of mice not entered into the dark chamber, %", "setting": "7 days after teaching, Melatonin 5 mg, Memantin 10 mg mono-use", "result": 41.6, "unit": "%"}, {"measurement": "Number of mice not entered into the dark chamber, %", "setting": "10 days after teaching, Melatonin 5 mg, Memantin 10 mg mono-use", "result": 50, "unit": "%"}, {"measurement": "CPAR amnesia observed, % of the animals", "setting": "in 24 hours, p<0.001", "result": 90, "unit": "%"}, {"measurement": "Number of mice taught to CPAR (%)", "setting": "agents i.p. once a day for 5 days, Melatonin 5 mg, Memantin 10 mg mono-use", "result": 58.3, "unit": "%"}]}]}
